The text below walks through data of ChEMBL document CHEMBL1158405, “Identification of nobiletin, a polymethoxyflavonoid, as an enhancer of adiponectin secretion” (2009).

The subject of experiment [1] is ST-13. The experiment can be described thus: Induction of adiponectin secretion in mouse ST-13 cells after 11 days by ELISA. The format is functional, cell-based. (An ELISA detects its analyte on a solid surface through an enzyme-linked reagent.)
The test system of experiment [2] is ST-13. The experiment can be described thus: Induction of preadipocyte differentiation in mouse ST-13 cells assessed as lipid accumulation at 5 uM within 11 days by oil red-staining relative to control. The format is functional, cell-based.
For experiment [3], the system named is ST-13. Put plainly: Induction of preadipocyte differentiation in mouse ST-13 cells assessed as lipid accumulation at 10 uM within 11 days by oil red-staining relative to control. It counts as functional, cell-based.
For experiment [4], the system named is ST-13. The experiment can be described thus: Induction of preadipocyte differentiation in mouse ST-13 cells assessed as triglyceride accumulation after 11 days by Fletcher's method. It counts as functional, cell-based.
Experiment [5] has as its system ST-13. The experiment can be described thus: Induction of adipocyte differentiation in mouse ST-13 cells assessed as stimulation of adipsin mRNA expression at 0.1 to 30 uM within 11 days by semi-quantitative RT-PCR. It counts as functional, cell-based.
The subject of experiment [6] is ST-13. Put plainly: Induction of adipocyte differentiation in mouse ST-13 cells assessed as stimulation of adipocyte P2 mRNA expression at 0.1 to 30 uM within 11 days by semi-quantitative RT-PCR. It counts as functional, cell-based.
A short description of experiment [7]: Induction of adiponectin secretion in mouse ST-13 cells at 10 uM after 11 days by ELISA relative to control. It counts as functional.
Experiment [8] relates to ST-13. The experiment can be described thus: Induction of adiponectin protein secretion in mouse ST-13 cells assessed as adiponectin mRNA level after 11 days by semi-quantitative RT-PCR. The format is functional, cell-based.
Experiment [9] deals with ST-13. Put plainly: Induction of adipocyte differentiation in mouse ST-13 cells assessed as increase in PPARgamma2 mRNA level after 11 days by semi-quantitative RT-PCR relative to control. It counts as functional, cell-based.
Experiment [10] concerns the target T1, Peroxisome proliferator-activated receptor gamma (Homo sapiens) (UniProt P37231).
T1 sequence (whole entry): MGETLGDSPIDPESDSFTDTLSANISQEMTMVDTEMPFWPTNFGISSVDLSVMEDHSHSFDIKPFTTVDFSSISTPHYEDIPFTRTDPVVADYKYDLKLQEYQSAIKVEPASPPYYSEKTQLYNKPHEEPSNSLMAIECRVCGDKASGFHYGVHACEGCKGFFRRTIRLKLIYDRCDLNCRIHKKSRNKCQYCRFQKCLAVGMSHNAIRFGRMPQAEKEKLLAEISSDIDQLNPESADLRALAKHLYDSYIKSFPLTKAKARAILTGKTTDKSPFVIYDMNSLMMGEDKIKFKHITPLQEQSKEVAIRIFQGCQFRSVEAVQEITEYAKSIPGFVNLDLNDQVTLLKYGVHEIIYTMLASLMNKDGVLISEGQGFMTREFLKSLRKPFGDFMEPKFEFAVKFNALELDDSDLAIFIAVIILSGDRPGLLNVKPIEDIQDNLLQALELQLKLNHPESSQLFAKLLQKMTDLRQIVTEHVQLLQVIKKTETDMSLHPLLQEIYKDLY
Put plainly: Agonist activity at Gal4-fused human PPARgamma expressed in african green monkey COS1 cells at 30 uM by luciferase reporter gene assay. The format is functional, cell-based. The note with it: COS-1. For orientation: Reporter assays use an easily measured gene product as a stand-in for the process of interest.

SMILES strings stand for the structures. Active and inactive are the calls of the source. The rule behind the calls is not given here.

Regarding `COc1ccc(-c2cc(=O)c3c(OC)cc(OC)c(OC)c3o2)cc1`, in experiment [1], the outcome was Active.

For the compound `Cc1c(C)c2c(c(C)c1O)CCC(C)(COc1ccc(CC3SC(=O)NC3=O)cc1)O2` (stereo unspecified), the outcome in [2] was Active.

In the case of `COc1ccc(-c2cc(=O)c3c(OC)c(OC)c(OC)c(OC)c3o2)cc1OC` [NOBILETIN], the result in experiment [3], in experiment [5], in experiment [6] and in experiment [9] was Active. The Activity entry in [4] is “Dose-dependent effect”; in experiment [1] it was “Dose-dependent effect”; in [7], 340%; in experiment [8], “Dose-dependent effect”. Further, the outcome in experiment [10] was inactive.
